Experimental findings from patent publication US5438048A, “Methylenebisphosphonic acid derivatives” (Leiras Oy, priority 1990, dated 1995) are described below.

Assay [1] in a line: Inhibition of hydroxyapatite growth (calcium phosphate crystal formation and precipitation inhibiting activity). It is filed as biochemical. More on the design: key to the marks not given beside the values. The note with it: at 100 μM.
Assay [2] can be described thus: Binding to hydroxyapatite (effect of bisphosphonates and their derivatives on hydroxyapatite).
For assay [3], the system named is mouse calvaria. Description: Parathyroid hormone stimulated bone resorption inhibition activity in vitro in mouse calvaria. It is filed as cell-based. The protocol: (§1) In addition, the parathyroid hormone stimulated bone resorption inhibition activity in vitro in mouse calvaria, as well as inhibition of retinoid induced bone resorption in thyroparathyroidectomised rats in vivo were determined (Reynolds & Dingle (Calc Tiss Res 1970; 4:339, and Trechsel et al. (J Clin Invest 1987; 80:1679)) (Table 2).

Assay [4] relates to retinoid induced bone resorption. Description: Inhibition of retinoid induced bone resorption in thyroparathyroidectomised rats in vivo. The note with it: 150 μmole/kg. The protocol:
as §1

The structures appear in SMILES notation.

In general, Ki refers to the equilibrium dissociation constant of an inhibitor or competing ligand from its target. With `O=P(O)(O)C(Cl)(Cl)P(=O)(O)O` [Clodronate, reference compound], the Inhibition of growth result in assay [1] was “+++”. This molecule also gave a Ki in assay [2] of 1.3 µM.

As for `CCCCC(O)(P(=O)(O)O)P(=O)(O)O` [(1-Hydroxypentylidene)bisphosphonate, (1-Hydroxypentylidene)-bisphosphonate, reference compound], the “Inhibition of resorption (%)” value in assay [3] (100 μm) is given as 56%.

`CC(C)OP(=O)(O)C(C)(O)P(=O)(O)O` (stereo not shown) [(1-Hydroxyethylidene)bisphosphonic acid monoisopropyl ester]: the Inhibition of growth result in assay [1] is recorded as “+++”. In assay [2], the Ki turned out to be 7.3 µM.

Consider `CCCCC(O)(P(=O)(O)O)P(=O)(O)OC` (stereo not shown) [(1-hydroxypentylidene)bisphosphonic acid monomethyl ester], for which the Inhibition of growth result in assay [1] is on record as “+++”. The results for the “Inhibition of resorption (%)” value in assay [4], in assay [3] (100 μm) and in assay [3] (1000 μm) were 52%, 7% and 47%, respectively. The molecule also returned a Ki in assay [2] of 11.8 µM.

`CC(O)(P(=O)(O)O)P(=O)(O)O` [Etidronate, reference compound] showed a Ki in assay [2] of 0.9 µM.

For the molecule `CCCCC(O)(P(=O)(O)O)P(=O)(O)OC(C)C` (stereo not shown) [(1-hydroxypentylidene)bisphosphonic acid monoisopropyl ester], the Inhibition of growth entry in assay [1] is recorded as “++”. Besides, in assay [2], the Ki amounted to 15.4 µM.
